Measurements: PubChem BioAssay AID624004 (Vanderbilt Specialized Chemistry Center, 2012)

Target: Phospholipase D2 (Homo sapiens) + Phospholipase D2 (Homo sapiens) (UniProt O14939+O14939)
Assay: cellular phospholipase D2 inhibitors, IC50 – cell-based, Lib32, assay 2B, dose response (AID 624004)
Settings: cellular PLD2 activity assay

Phospholipase D2 (Homo sapiens) + Phospholipase D2 (Homo sapiens), sequence (O14939 whole entry, looked up): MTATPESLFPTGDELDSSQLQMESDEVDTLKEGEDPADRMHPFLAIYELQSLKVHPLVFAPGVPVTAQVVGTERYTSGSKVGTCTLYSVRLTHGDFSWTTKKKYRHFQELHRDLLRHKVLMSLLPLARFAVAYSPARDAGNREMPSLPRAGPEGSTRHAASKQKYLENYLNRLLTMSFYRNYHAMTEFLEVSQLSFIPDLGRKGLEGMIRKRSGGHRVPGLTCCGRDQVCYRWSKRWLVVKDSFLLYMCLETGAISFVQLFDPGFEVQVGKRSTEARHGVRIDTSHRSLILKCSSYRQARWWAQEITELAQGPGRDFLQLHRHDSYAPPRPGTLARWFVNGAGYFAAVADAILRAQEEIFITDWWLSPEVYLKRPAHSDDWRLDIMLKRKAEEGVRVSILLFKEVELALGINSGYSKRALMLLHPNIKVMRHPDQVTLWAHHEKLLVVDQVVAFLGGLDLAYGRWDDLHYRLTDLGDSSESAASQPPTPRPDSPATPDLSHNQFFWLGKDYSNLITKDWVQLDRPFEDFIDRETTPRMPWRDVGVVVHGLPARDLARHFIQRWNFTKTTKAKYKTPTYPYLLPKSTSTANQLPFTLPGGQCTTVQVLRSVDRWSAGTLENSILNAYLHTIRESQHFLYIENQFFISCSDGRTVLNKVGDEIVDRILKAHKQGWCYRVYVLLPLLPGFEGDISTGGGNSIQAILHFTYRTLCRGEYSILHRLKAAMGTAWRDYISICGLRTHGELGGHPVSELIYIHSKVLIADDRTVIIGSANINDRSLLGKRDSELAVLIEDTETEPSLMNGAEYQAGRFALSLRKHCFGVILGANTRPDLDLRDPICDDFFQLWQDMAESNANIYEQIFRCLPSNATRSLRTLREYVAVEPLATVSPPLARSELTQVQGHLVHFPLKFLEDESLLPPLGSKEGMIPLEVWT
Phospholipase D2 (Homo sapiens) + Phospholipase D2 (Homo sapiens), sequence (O14939 whole entry, looked up): as above

In the case of `O=C(NCCN1CCC2(CC1)C(=O)NCN2c1cccc(F)c1)c1ccc(Br)cc1`, the IC50 is reported as 200 nM.

In the case of `C[C@@H](CN1CCC2(CC1)C(=O)NCN2c1cccc(F)c1)NC(=O)c1cccc(F)c1`, the IC50 is reported as 1200 nM.

In the case of `C[C@@H](CN1CCC2(CC1)C(=O)NCN2c1cccc(F)c1)NC(=O)c1ccc(F)cc1`, the IC50 is reported as 34 nM.

For `COc1cc(C(=O)NCCN2CCC3(CC2)C(=O)NCN3c2cccc(F)c2)cc(OC)c1OC`, the IC50 was 1430 nM.

`COc1cc(C(=O)N[C@@H](C)CN2CCC3(CC2)C(=O)NCN3c2cccc(F)c2)cc(OC)c1OC` showed an IC50 of 72 nM.

In the case of `C[C@@H](CN1CCC2(CC1)C(=O)NCN2c1cccc(F)c1)NC(=O)c1ccc(F)cc1F`, the IC50 is reported as 947 nM.

`C[C@@H](CN1CCC2(CC1)C(=O)NCN2c1cccc(F)c1)NC(=O)c1ccc(F)c(F)c1` was tested, and the IC50 was 120 nM.

`O=C(NCCN1CCC2(CC1)C(=O)NCN2c1cccc(F)c1)c1ccc(F)cc1` showed an IC50 of 355 nM.

`C[C@@H](CN1CCC2(CC1)C(=O)NCN2c1cccc(F)c1)NC(=O)c1ccc(Br)cc1` showed an IC50 of 84 nM.

`C[C@@H](CN1CCC2(CC1)C(=O)NCN2c1cccc(F)c1)NC(=O)c1cccc([N+](=O)[O-])c1` was tested, and the IC50 was 430 nM.
